We go through nine molecules from US20030143670A1, “DNA encoding SNORF44 receptor” (priority 1999, published 2003).

For assay [1], the target named is T1, hSNORF44 (Homo sapiens, UniProt Q96P65).
T1 sequence (Q96P65 1-431): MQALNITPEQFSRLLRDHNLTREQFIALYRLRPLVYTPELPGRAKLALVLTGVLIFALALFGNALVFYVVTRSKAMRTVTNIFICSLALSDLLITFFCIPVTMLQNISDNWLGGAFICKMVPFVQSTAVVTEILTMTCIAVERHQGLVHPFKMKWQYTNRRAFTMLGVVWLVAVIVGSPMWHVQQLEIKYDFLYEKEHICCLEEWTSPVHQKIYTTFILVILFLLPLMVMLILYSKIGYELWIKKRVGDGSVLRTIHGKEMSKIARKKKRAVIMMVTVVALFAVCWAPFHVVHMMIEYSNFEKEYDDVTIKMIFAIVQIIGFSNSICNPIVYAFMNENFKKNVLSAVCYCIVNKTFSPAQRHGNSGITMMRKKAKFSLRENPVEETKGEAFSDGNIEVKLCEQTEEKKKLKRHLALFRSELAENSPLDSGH
As to the kind of experiment: Intracellular Ca2+ release (FLIPR) in transiently transfected COS-7 cells. The arrangement: The entire coding region was then amplified by PCR from human spinal cord cDNA and subcloned into pcDNA3.1(−) for expression and functional analyses; expressed in transfected cells; host or cells: COS-7. As to conditions: COS-7 cells transfected with SNORF44. In kind it is cell-based. Here is the method:
(§1) A typical protocol for the DEAE-dextran method as applied to COS-7 and HEK293 cells is described as follows. Cells to be used for transfection are split 24 hours prior to the transfection to provide flasks which are 70-80% confluent at the time of transfection. Briefly, 8 μg of receptor DNA plus 8 μg of any additional DNA needed (e.g. Gα protein expression vector, reporter construct, antibiotic resistance marker, mock vector, etc.) are added to 9 ml of complete DMEM plus DEAE-dextran mixture (10 mg/ml in PBS). Cells plated into a T225 flask (sub-confluent) are washed once with PBS and the DNA mixture is added to each flask. The cells are allowed to incubate for 30 minutes at 37° C., 5% CO2. Following the incubation, 36 ml of complete DMEM with 80 μM chloroquine is added to each flask and allowed to incubate an additional 3 hours. The medium is then aspirated and 24 ml of complete medium containing 10% DMSO for exactly 2 minutes and then aspirated. The cells are then washed 2 times with PBS and 30 ml of complete DMEM added to each flask. The cells are then allowed to incubate over night. The next day the cells are harvested by trypsinization and reseeded into 96 well plates.
Cells expressing the receptor of interest are plated into clear, flat-bottom, black-walled 96-well plates (Costar) at a density of 80,000-150,000 cells per well and allowed to incubate for 48 hr at 5% CO2, 37° C. The growth medium is aspirated and 100 μL of loading medium containing Fluo-3 dye is added to each well. […]
(§2) The compounds of interest are diluted in wash buffer (Hank's BSS (without phenol red), 20 mM HEPES, 2.5 mM probenecid) to a 4× final concentration and aliquoted into a clear v-bottom plate (Nunc). […] Compounds are added to the cell plates and responses are measured using the FLIPR™ instrument. The data are then collected and analyzed using the FLIPR™ software and Graphpad Prism. […]

Assay [2] addresses T1, hSNORF44. Kind of assay: Calcium-activated Cl- currents in Xenopus laevis oocytes (voltage clamp). Format: cell-based. Further details: Synthetic, full-length RNA transcripts for human SNORF44 were produced by digestion of the plasmid BN16; expressed in transfected cells; host or cells: Xenopus laevis oocytes injected with synthetic RNA. As to conditions: oocytes injected with SNORF44 mRNA; 10 μM peptide; holding potential -80 mV. The procedure: (§3) Oocytes were harvested from Xenopus laevis and injected with mRNA transcripts as previously described (Quick and Lester, 1994; Smith et al.,1997). Synthetic, full-length RNA transcripts for human SNORF44 were produced by digestion of the plasmid BN16 with HINDIII followed by transcription with T7 RNA Polymerase (“Message Machine”, Ambion). Oocytes were injected with 15 ng hSN44 receptors synthetic RNA and incubated for 3-4 days at 17 degrees. Dual electrode voltage clamp (Axon Instruments Inc.) was performed using 3 M KCl-filled glass microelectrodes having resistances of 1-2 Mohm. Unless otherwise specified, oocytes were voltage clamped at a holding potential of −80 mV. During recordings, oocytes were bathed in continuously flowing (1-3 ml/min) medium containing 96 mM NaCl, 2 mM KCl, 1.8 mM CaCl2, 1 mM MgCl2, and 5 mM HEPES, pH 7.5 (ND96 Buffer). Drugs were applied by local perfusion from a […] glass capillary tube fixed at a distance of 0.5 mm from the oocyte.
(§4) Heterologous expression of GPCRs in Xenopus oocytes has been widely used to determine the identity of signaling pathways activated by agonist stimulation (Gundersen et al., 1983; Takahashi et al., 1987). Activation of the phospholipase C (PLC) pathway is assayed by applying test compound in ND96 solution to oocytes previously injected with mRNA for the mammalian receptor and observing inward currents at a holding potential of −80 mV. The appearance of currents that reverse at −25 mV and display other properties of the Ca^++-activated Cl^− (chloride) channel is indicative of mammalian receptor-activation of PLC and release of IP3 and intracellular Ca^++.

The next assay has as its system human SNORF44. Described as above. In kind it is cell-based. Conditions: control (uninjected) oocytes not expressing hSNORF44. The procedure: as §3, §4
The target in assay [3] is T1, hSNORF44. As to the kind of experiment: Inositol phosphate (IP) release in transfected COS-7 cells. In kind it is cell-based. The arrangement: The entire coding region was then amplified by PCR from human spinal cord cDNA and subcloned into pcDNA3.1(−) for expression and functional analyses; expressed in transfected cells; host or cells: COS-7. As to conditions: hSNORF44-transfected COS-7 cells. Here is the method:
as §1, with “The medium is then aspirated and 24 ml of complete medium containing 10% DMSO for exactly 2 minutes and then aspirated. The cells are then washed 2 times with PBS and 30 ml of complete DMEM added to each flask. The cells are then allowed to incubate over night. The next day the cells are harvested by trypsinization and reseeded into 96 well plates.” left out
Human SNORF44 receptor-mediated activation of the inositol phosphate (IP) second messenger pathways were assessed by radiometric measurement of IP products.
For example, in a 96 well microplate format assay, COS-7 cells expressing the receptor of interest were plated at a density of 70,000 cells per well and allowed to incubate for 24 hours. […] 200 μL of scintillation cocktail was added to each well, and the radioactivity was determined by liquid scintillation counting.

Assay [4] concerns hSNORF44. As to the kind of experiment: Intracellular Ca2+ release (FLIPR) in transiently transfected COS-7 cells. Conditions: vector-transfected cells (so in the source); data not shown. Format: cell-based, human. Here is the method: as §1, with “The cells are then washed 2 times with PBS and 30 ml of complete DMEM added to each flask. The cells are then allowed to incubate over night. The next day the cells are harvested by trypsinization and reseeded into 96 well plates.” left out
as §2

The target in the next assay is MC3 (Homo sapiens, UniProt P41968). Conditions: Schioth et al., 1996; cited from earlier work.
MC3, sequence (P41968 whole entry): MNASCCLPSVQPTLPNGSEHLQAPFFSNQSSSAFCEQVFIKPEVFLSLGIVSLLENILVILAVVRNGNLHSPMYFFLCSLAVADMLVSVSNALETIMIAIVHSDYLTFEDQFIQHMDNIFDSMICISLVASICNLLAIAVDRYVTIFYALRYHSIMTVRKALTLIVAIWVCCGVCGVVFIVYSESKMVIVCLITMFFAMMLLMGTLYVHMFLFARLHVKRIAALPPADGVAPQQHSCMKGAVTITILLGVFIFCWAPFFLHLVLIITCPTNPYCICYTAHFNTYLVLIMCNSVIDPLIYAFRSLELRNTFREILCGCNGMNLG
The next assay addresses T2, human SNORF44 receptor (human, UniProt Q96P65 1-431).
T2 sequence: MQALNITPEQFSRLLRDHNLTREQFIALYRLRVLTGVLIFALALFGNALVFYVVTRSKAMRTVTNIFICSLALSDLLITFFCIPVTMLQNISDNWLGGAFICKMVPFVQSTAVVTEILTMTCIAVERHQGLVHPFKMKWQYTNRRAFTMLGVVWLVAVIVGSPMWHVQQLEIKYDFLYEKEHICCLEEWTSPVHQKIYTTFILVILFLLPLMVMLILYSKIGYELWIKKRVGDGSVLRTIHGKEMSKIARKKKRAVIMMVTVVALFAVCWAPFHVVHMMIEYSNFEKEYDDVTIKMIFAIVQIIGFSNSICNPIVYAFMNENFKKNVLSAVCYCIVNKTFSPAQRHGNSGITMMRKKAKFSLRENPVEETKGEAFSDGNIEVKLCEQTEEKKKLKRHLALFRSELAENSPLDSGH
Kind of assay: cell-based or functional assay.

Entries after “also recorded” stand apart in the source; their conditions may differ. Where no end group is shown, it is not given here.

Take H-MGHFRF-NH2 [Peptide 2, MGHFRF-NH2]: the “release of intracellular Ca2+ as measured by FLIPR” value on hSNORF44 [1] is listed as “stimulated release of intracellular Ca^2+”. For the same molecule, the “current amplitude (Ca2+-dependent Cl- current)” value on hSNORF44 [2] amounted to 241±65 nA. Further, in the assay with human SNORF44, the “response in control oocytes” value is “not in control oocytes”.
Taken in the same sequence, the figures for H-YGGHFRW-NH2 [Peptide 3, YGGHFRW-NH2] were “stimulated release of intracellular Ca^2+”, 250±46 nA and “not in control oocytes”.
As for H-YSMEHFRW-NH2 [Peptide 1], on hSNORF44 [3], the “release of IP second messengers, fold above basal” value is on record as “approximately 10 fold”. Further, the “release of intracellular Ca2+ as measured by FLIPR” value on hSNORF44 [1] is listed as “concentration-dependent release of intracellular Ca^2+”. Further, the “current amplitude (Ca2+-dependent Cl- current)” value at hSNORF44 [2] is given as 1036±306 nA. Moreover, the “response in control oocytes” value in the assay with human SNORF44 is recorded as “no response; also recorded: does not respond”.
Turning to “NPFF (FLFQPQRF; ends and bridges not checked; UniProt O15130 69-76, looked up) [reference compound]”, the “effect on intracellular Ca2+ release” value in the assay on hSNORF44 [4] was “neither NPFF nor NPY (ligands activating the most closely related GPCRs) had any significant effect”.
The same measure, in the same setting: with NPY [reference compound] the entry was “neither NPFF nor NPY (ligands activating the most closely related GPCRs) had any significant effect”.
For the molecule gamma melanocortin [γ-MSH], the “agonist activity at recombinant MC3 receptor” value at MC3 is “agonist”.

B1: Peptide 2 (peptide)
peptide: MGHFRF-NH2
For B1, the “EC50, release of IP second messengers, COS-7 cells” value (from here on “EC50, release”) in the assay with human SNORF44 receptor turned out to be 294 nM.

B2: Peptide 1 (peptide)
peptide: YSMEHFRW-NH2
With B2, in the assay with human SNORF44 receptor, the “EC50, release” value is 1210 nM and the “release of IP second messengers, fold above basal, COS-7 cells” value is ~10 fold.

B3: Peptide 3 (peptide)
peptide: YGGHFRW-NH2
On to B3, for which the “EC50, release” value with human SNORF44 receptor was 328 nM.
